Reference: article PMC8861050, “Design, synthesis and evaluation of novel 2-oxoindoline-based acetohydrazides as antitumor agents” (Scientific Reports, 2022)

Legend:
NCI-H23 (lung cancer) = experiment: SRB cytotoxicity assay, NCI-H23; assay type: cell-based; conditions: Homo sapiens, 48 h incubation, mean ± SEM of 3 independent experiments
Text: (§1) Three human cancer cell lines: colon cancer (SW620), prostate cancer (PC3), and lung cancer (NCI-H23) were used for sceening the cytotoxicity of the compounds. The cancer cells were purchased from American Type Culture Collection (Manassas, VA, USA). Other reagents/media for cell culture were obtained from GIBCO (Grand Island, New York, USA). The testing cancer cells were culture in Dulbecco’s Modified Eagle Medium until confluence. Then, they were trypsinized and suspended at the level of 3 × 10^4 cells/mL of cell culture medium. On day 0, cancer cells were seeded at a volume of 180 µL/well of 96-well plates and incubated for 24 h at 37 °C in a 5% CO2 incubator. On day 1, 20 µL of various concentrations of testing compounds were added to each well of the 96-well plates. Chemicals were dissolved in dimethyl sulfoxide (DMSO, stock) and diluted in culture medium (1% DMSO) before adding to the culture. After 48 h incubation, the sulforhodamine B assay was used for cell density determination with slight modifications[22]–[26]. The Probits were used for the calculation of IC50 values. The reported IC50 were the averages of three independent screening (SD ≤ 10%)[27].
(§2) Two series of compounds synthesized (4a–p and 5a–f) were evaluated for their cytotoxicity against three human cancer cell lines, including SW620 (colon cancer), PC3 (prostate cancer), NCI-H23 (lung cancer), using SRB method as described previously[22] with slight modifications[23]–[26].

PC3 (prostate cancer) = experiment: SRB cytotoxicity assay, PC3; assay type: cell-based; conditions: Homo sapiens, 48 h incubation, mean ± SEM of 3 independent experiments
Text: as §1, §2

[1] = Cytotoxicity on normal mesenchymal stem cells; assay type: cell-based; conditions: human bone marrow-derived mesenchymal stem cells; mean ± SEM; read-out: Cytotoxicity (IC50) MSCs
Description: Overally, 5-fluorinated compounds (4i–p and 5d–f) were slightly more cytotoxic than non-fluorinated ones (4a–h, 5a–c). For compounds in series 4a–p, it was observed that, electron-releasing substituents (–OCH3, OH) were generally better than electron-withdrawing groups (–Cl) for cytotoxicity. Especially, compounds with 2-OH substituents produced the best cytotoxicity. The addition of either 4-OCH3 or 3-allyl groups further enhanced cytotoxicity of the related compounds (4g, 4h and 4o, 4p).

SW620 (colon cancer) = experiment: SRB cytotoxicity assay, SW620; assay type: cell-based; conditions: Homo sapiens, SW-620, 48 h incubation, mean ± SEM of 3 independent experiments
Text: as §1, §2

melting point [°C]	SMILES	IC50 (NCI-H23 (lung cancer)) [µM]	IC50 (PC3 (prostate cancer)) [µM]	IC50 [1] [µM]	IC50 (SW620 (colon cancer)) [µM]
175 to 176	COc1ccc(/C=N/NC(=O)CN2C(=O)Cc3cc(F)ccc32)cc1 [Compound 4m, (E)-N'-(4-Methoxybenzylidene)-2-(5-fluoro-2-oxoindolin-1-yl)acetohydrazide]	7.43 ± 0.56	7.33 ± 0.42	> 30	7.52 ± 0.63
191 to 192	O=C(CN1C(=O)Cc2ccccc21)N/N=C1\C(=O)Nc2ccccc21 [Compound 5a, (Z)-2-(2-Oxoindolin-1-yl)-N'-(2-oxoindolin-3-ylidene)acetohydrazide]	15.3 ± 1.32	14.3 ± 1.21	> 30	16.4 ± 1.05
201 to 202	O=C(CN1C(=O)Cc2ccccc21)N/N=C1\C(=O)Nc2ccc(Cl)cc21 [Compound 5b, (Z)-N'-(5-Chloro-2-oxoindolin-3-ylidene)-2-(2-oxoindolin-1-yl)acetohydrazide]	16.5 ± 1.33	18.4 ± 1.53	> 30	17.4 ± 1.43
198 to 199	Cc1ccc2c(c1)/C(=N/NC(=O)CN1C(=O)Cc3ccccc31)C(=O)N2 [Compound 5c, (Z)-N'-(5-Methyl-2-oxoindolin-3-ylidene)-2-(2-oxoindolin-1-yl)acetohydrazide]	18.4 ± 1.87	19.6 ± 2.01	> 30	17.6 ± 1.32
215 to 216	O=C(CN1C(=O)Cc2cc(F)ccc21)N/N=C1\C(=O)Nc2ccccc21 [Compound 5d, (Z)-2-(5-Fluoro-2-oxoindolin-1-yl)-N'-(2-oxoindolin-3-ylidene)acetohydrazide]	13.6 ± 1.31	14.6 ± 1.27	> 30	12.4 ± 1.21
221 to 222	O=C(CN1C(=O)Cc2cc(F)ccc21)N/N=C1\C(=O)Nc2ccc(Cl)cc21 [Compound 5e, (Z)-N'-(5-Chloro-2-oxoindolin-3-ylidene)-2-(5-fluoro-2-oxoindolin-1-yl)acetohydrazide]	15.5 ± 1.36	14.7 ± 1.71	> 30	15.3 ± 1.5
217 to 218	Cc1ccc2c(c1)/C(=N/NC(=O)CN1C(=O)Cc3cc(F)ccc31)C(=O)N2 [Compound 5f, (Z)-2-(5-Fluoro-2-oxoindolin-1-yl)-N'-(5-methyl-2-oxoindolin-3-ylidene)acetohydrazide]	14.9 ± 1.83	15.3 ± 1.7	> 30	12.7 ± 1.22

Second part, the compound before the results:

SMILES	melting point [°C]	IC50 (NCI-H23 (lung cancer)) [µM]	IC50 (PC3 (prostate cancer)) [µM]	IC50 [1] [µM]	IC50 (SW620 (colon cancer)) [µM]
O=C(CN1C(=O)Cc2ccccc21)N/N=C/c1ccccc1 [Compound 4a, (E)-N'-Benzylidene-2-(2-oxoindolin-1-yl)acetohydrazide]	167 to 168	10.4 ± 0.87	12.2 ± 0.99	> 30	10.1 ± 0.91
O=C(CN1C(=O)Cc2ccccc21)N/N=C/c1ccccc1Cl [Compound 4b, (E)-N'-(2-Chlorobenzylidene)-2-(2-oxoindolin-1-yl)acetohydrazide]	179 to 181	8.34 ± 0.52	8.72 ± 0.71	> 30	9.91 ± 0.76
O=C(CN1C(=O)Cc2ccccc21)N/N=C/c1cccc(Cl)c1 [Compound 4c, (E)-N'-(3-Chlorobenzylidene)-2-(2-oxoindolin-1-yl)acetohydrazide]	181 to 182	13.5 ± 1.11	14.2 ± 1	> 30	15.3 ± 1.01
O=C(CN1C(=O)Cc2ccccc21)N/N=C/c1ccc(Cl)cc1 [Compound 4d, (E)-N'-(4-Chlorobenzylidene)-2-(2-oxoindolin-1-yl)acetohydrazide]	185 to 187	15.6 ± 1.43	17.4 ± 1.34	> 30	16.3 ± 1.21
COc1ccc(/C=N/NC(=O)CN2C(=O)Cc3ccccc32)cc1 [Compound 4e, (E)-N'-(4-Methoxybenzylidene)-2-(2-oxoindolin-1-yl)acetohydrazide]	168 to 169	8.72 ± 0.33	7.43 ± 0.45	> 30	9.01 ± 0.74
COc1ccc(/C=N/NC(=O)CN2C(=O)Cc3ccccc32)c(O)c1 [Compound 4g, (E)-N'-(2-Hydroxy-4-methoxybenzylidene)-2-(2-oxoindolin-1-yl)acetohydrazide]	177 to 178	2.59 ± 0.21	4.32 ± 0.34	15.5 ± 0.64	3.34 ± 0.31
O=C(CN1C(=O)Cc2cc(F)ccc21)N/N=C/c1ccccc1 [Compound 4i, (E)-N'-Benzylidene-2-(5-fluoro-2-oxoindolin-1-yl)acetohydrazide]	173 to 174	8.44 ± 0.67	8.56 ± 0.52	> 30	9.54 ± 0.74
O=C(CN1C(=O)Cc2cc(F)ccc21)N/N=C/c1ccccc1Cl [Compound 4j, (E)-N'-(2-Chlorobenzylidene)-2-(5-fluoro-2-oxoindolin-1-yl)acetohydrazide]	185 to 186	8 ± 0.98	8.43 ± 0.59	> 30	7.56 ± 0.57
O=C(CN1C(=O)Cc2cc(F)ccc21)N/N=C/c1cccc(Cl)c1 [Compound 4k, (E)-N'-(3-Chlorobenzylidene)-2-(5-fluoro-2-oxoindolin-1-yl)acetohydrazide]	187 to 188	17.4 ± 1.54	16.4 ± 1.56	> 30	16.4 ± 1.19
O=C(CN1C(=O)Cc2cc(F)ccc21)N/N=C/c1ccc(Cl)cc1 [Compound 4l, (E)-N'-(4-Chlorobenzylidene)-2-(5-fluoro-2-oxoindolin-1-yl)acetohydrazide]	191 to 192	16.4 ± 1.77	17.8 ± 1.58	> 30	14.3 ± 1.21
